± gives the expanded uncertainty stated by the source.
Columns and labels:
[1] = refractive index (Na D-line) (dimensionless); conditions: 101.33 kPa, Liquid, Standard Abbe refractometry
[2] = for surface tension liquid-gas: Ring tensiometer; for electrical conductivity: 101.33 kPa, Liquid, Alternating current cell with electrodes

Row | Structure (SMILES) | refractive index ([1]; 293.15 K) | refractive index ([1]; 298.15 K) | refractive index ([1]; 303.15 K) | refractive index ([1]; 308.15 K) | refractive index ([1]; 313.15 K) | refractive index ([1]; 318.15 K) | refractive index ([1]; 323.15 K) | refractive index ([1]; 328.15 K) | refractive index ([1]; 333.15 K) | surface tension liquid-gas ([2]; 293.15 K) [mN/m] | electrical conductivity ([2]; 293.15 K) [S/m] | surface tension liquid-gas ([2]; 298.15 K) [mN/m] | electrical conductivity ([2]; 298.15 K) [S/m] | surface tension liquid-gas ([2]; 303.15 K) [mN/m] | electrical conductivity ([2]; 303.15 K) [S/m] | surface tension liquid-gas ([2]; 308.15 K) [mN/m] | electrical conductivity ([2]; 308.15 K) [S/m] | surface tension liquid-gas ([2]; 313.15 K) [mN/m] | electrical conductivity ([2]; 313.15 K) [S/m] | surface tension liquid-gas ([2]; 318.15 K) [mN/m] | other results
1 | CC(=O)[O-].CCC[NH3+] [propylammonium acetate] | 1.4383 ± 0.0012 | 1.4369 ± 0.0012 | 1.4356 ± 0.0012 | 1.4341 ± 0.0012 | 1.4328 ± 0.0012 | 1.4313 ± 0.0012 | 1.4301 ± 0.0012 | 1.4287 ± 0.0012 | 1.4273 ± 0.0012 | 33.5 ± 1 | 0.04 ± 0.01 | 33.1 ± 1 | 0.06 ± 0.01 | 32.7 ± 0.9 | 0.08 ± 0.01 | 32.2 ± 0.9 | 0.1 ± 0.01 | 31.8 ± 0.9 | 0.14 ± 0.01 | 31.4 ± 0.9 | electrical conductivity ([2]; 318.15 K): 0.17 ± 0.01 S/m; surface tension liquid-gas ([2]; 323.15 K): 31 ± 0.9 mN/m; electrical conductivity ([2]; 323.15 K): 0.22 ± 0.01 S/m; surface tension liquid-gas ([2]; 328.15 K): 30.6 ± 0.9 mN/m; electrical conductivity ([2]; 328.15 K): 0.27 ± 0.01 S/m; surface tension liquid-gas ([2]; 333.15 K): 30.2 ± 0.9 mN/m; electrical conductivity ([2]; 333.15 K): 0.33 ± 0.01 S/m
2 | CCC[NH3+].O=C[O-] [propylammonium formate] | 1.44 ± 0.0012 | 1.4386 ± 0.0012 | 1.4372 ± 0.0012 | 1.4356 ± 0.0012 | 1.4341 ± 0.0012 | 1.4326 ± 0.0012 | 1.431 ± 0.0012 | 1.4295 ± 0.0012 | 1.428 ± 0.0012 | 37.8 ± 1.1 | 0.31 ± 0.01 | 37.4 ± 1.1 | 0.36 ± 0.01 | 37 ± 1.1 | 0.44 ± 0.01 | 36.6 ± 1 | 0.51 ± 0.01 | 36.2 ± 1 | 0.59 ± 0.01 | 35.8 ± 1 | electrical conductivity ([2]; 318.15 K): 0.68 ± 0.01 S/m; surface tension liquid-gas ([2]; 323.15 K): 35.4 ± 1 mN/m; electrical conductivity ([2]; 323.15 K): 0.78 ± 0.01 S/m; surface tension liquid-gas ([2]; 328.15 K): 35 ± 1 mN/m; electrical conductivity ([2]; 328.15 K): 0.87 ± 0.01 S/m; surface tension liquid-gas ([2]; 333.15 K): 34.6 ± 1 mN/m; electrical conductivity ([2]; 333.15 K): 1 ± 0.01 S/m
3 | CC(=O)[O-].[NH3+]CCCO [3-hydroxypropylammonium acetate] | 1.4663 ± 0.0012 | 1.4652 ± 0.0012 | 1.464 ± 0.0012 | 1.4628 ± 0.0012 | 1.4616 ± 0.0012 | 1.4605 ± 0.0012 | 1.4593 ± 0.0012 | 1.4581 ± 0.0012 | 1.457 ± 0.0012 | 48 ± 1.4 | 0.01 ± 0.01 | 47.5 ± 1.3 | 0.01 ± 0.01 | 47 ± 1.3 | 0.01 ± 0.01 | 46.5 ± 1.3 | 0.02 ± 0.01 | 46 ± 1.3 | 0.02 ± 0.01 | 45.5 ± 1.3 | electrical conductivity ([2]; 318.15 K): 0.03 ± 0.01 S/m; surface tension liquid-gas ([2]; 323.15 K): 45 ± 1.3 mN/m; electrical conductivity ([2]; 323.15 K): 0.04 ± 0.01 S/m; surface tension liquid-gas ([2]; 328.15 K): 44.5 ± 1.3 mN/m; electrical conductivity ([2]; 328.15 K): 0.05 ± 0.01 S/m; surface tension liquid-gas ([2]; 333.15 K): 44 ± 1.2 mN/m; electrical conductivity ([2]; 333.15 K): 0.06 ± 0.01 S/m
4 | O=C([O-])C(F)(F)F.[NH3+]CCCO [3-hydroxypropylammonium trifluoroacetate] | 1.4113 ± 0.0012 | 1.4101 ± 0.0012 | 1.409 ± 0.0012 | 1.4078 ± 0.0012 | 1.4067 ± 0.0012 | 1.4055 ± 0.0012 | 1.4044 ± 0.0012 | 1.4032 ± 0.0012 | 1.402 ± 0.0012 | 38.2 ± 1.1 | 0.03 ± 0.01 | 37.8 ± 1.1 | 0.04 ± 0.01 | 37.4 ± 1.1 | 0.06 ± 0.01 | 37 ± 1.1 | 0.09 ± 0.01 | 36.5 ± 1 | 0.12 ± 0.01 | 36.1 ± 1 | electrical conductivity ([2]; 318.15 K): 0.16 ± 0.01 S/m; surface tension liquid-gas ([2]; 323.15 K): 35.7 ± 1 mN/m; electrical conductivity ([2]; 323.15 K): 0.2 ± 0.01 S/m; surface tension liquid-gas ([2]; 328.15 K): 35.3 ± 1 mN/m; electrical conductivity ([2]; 328.15 K): 0.25 ± 0.01 S/m; surface tension liquid-gas ([2]; 333.15 K): 34.9 ± 1 mN/m; electrical conductivity ([2]; 333.15 K): 0.31 ± 0.01 S/m
5 | O=C[O-].[NH3+]CCCO [3-hydroxypropylammonium formate] | 1.4678 ± 0.0012 | 1.4667 ± 0.0012 | 1.4655 ± 0.0012 | 1.4644 ± 0.0012 | 1.4632 ± 0.0012 | 1.4621 ± 0.0012 | 1.461 ± 0.0012 | 1.4598 ± 0.0012 | 1.4586 ± 0.0012 | 56.9 ± 1.6 | 0.11 ± 0.01 | 56.4 ± 1.6 | 0.14 ± 0.01 | 55.9 ± 1.6 | 0.17 ± 0.01 | 55.4 ± 1.6 | 0.21 ± 0.01 | 54.9 ± 1.5 | 0.26 ± 0.01 | 54.4 ± 1.5 | electrical conductivity ([2]; 318.15 K): 0.3 ± 0.01 S/m; surface tension liquid-gas ([2]; 323.15 K): 54 ± 1.5 mN/m; electrical conductivity ([2]; 323.15 K): 0.36 ± 0.01 S/m; surface tension liquid-gas ([2]; 328.15 K): 53.5 ± 1.5 mN/m; electrical conductivity ([2]; 328.15 K): 0.42 ± 0.01 S/m; surface tension liquid-gas ([2]; 333.15 K): 53 ± 1.5 mN/m; electrical conductivity ([2]; 333.15 K): 0.49 ± 0.01 S/m
